Test results published in ChEMBL document CHEMBL1201862, “PubChem BioAssay data set” (2004).
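A five-concentration, 48-hour dose response in 96-well plates underlies each endpoint, interpolated linearly between surrounding concentrations. GI50 = concentration required for 50% inhibition of growth.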 Calls of active or inactive are those of the source. Cut-off read from the data, not from the text of the source: active = GI50 up to about 1.1 µM and inactive = higher.

What was measured:
Assay in all cases: NCI tumour cell line growth inhibition, 48 h
[1] = system: CCRF-CEM
[2] = system: RPMI-8226
[3] = system: HCC 2998
[4] = system: MOLT-4
[5] = system: HCT-15
[6] = system: SF-295
[7] = system: MDA-MB-435
[8] = system: HCT-116
[9] = system: OVCAR-8
[10] = system: MCF7
[11] = system: A498
[12] = system: OVCAR-3
[13] = system: Hs-578T
[14] = system: SK-MEL-5
[15] = system: SNB-19
[16] = system: SK-MEL-2
[17] = system: DU-145
[18] = system: PC-3
[19] = system: 786-0
[20] = system: NCI-H226

| SMILES | GI50 [1] | GI50 [2] | GI50 [3] | GI50 [4] | GI50 [5] | GI50 [6] | GI50 [7] | GI50 [8] | GI50 [9] | GI50 [10] | GI50 [11] | GI50 [12] | GI50 [13] | GI50 [14] | GI50 [15] | GI50 [16] | GI50 [17] | GI50 [18] | GI50 [19] | GI50 [20] |
| --- | --- | --- | --- | --- | --- | --- | --- | --- | --- | --- | --- | --- | --- | --- | --- | --- | --- | --- | --- | --- |
| Cn1cnc([N+](=O)[O-])c1Sc1nc(N)nc2c1ncn2[C@H]1C[C@H](O)[C@@H](CO)O1 | 2.88 µM (inactive) | 1.09 µM (active) | 13.8 µM (inactive) | 2.43 µM (inactive) | 4.17 µM | 3.11 µM (inactive) | 2.29 µM (inactive) | 2.86 µM (inactive) | 2.51 µM (inactive) | 2.61 µM (inactive) | 5.42 µM (inactive) | 3.44 µM (inactive) | 10.3 µM (inactive) | 4.08 µM (inactive) | 62.1 µM (inactive) | 2.45 µM (inactive) | 1.21 µM (inactive) | 6.84 µM (inactive) | 3.86 µM (inactive) | 7.82 µM (inactive) |
| NC1CC(=O)c2c(Cl)sc(Cl)c21 (stereo not given) | 0.885 µM (active) | 2.37 µM (inactive) | 10.1 µM (inactive) | 2.18 µM (inactive) | 1.63 µM | 14 µM (inactive) | 4.62 µM (inactive) | 1.43 µM (inactive) | 5.46 µM (inactive) | 1.82 µM (inactive) | 15.3 µM (inactive) | 6.47 µM (inactive) | 19.2 µM (inactive) | 8.79 µM (inactive) | 13.2 µM (inactive) | 12.4 µM (inactive) | 5.55 µM (inactive) | 6.21 µM (inactive) | 1.41 µM (inactive) | 14.4 µM (inactive) |
| O=C1c2cccc([N+](=O)[O-])c2C(=O)N1Cc1ccccc1 | > 100 µM (inactive) | > 100 µM (inactive) | > 100 µM (inactive) | > 100 µM (inactive) | > 100 µM | > 100 µM (inactive) | > 100 µM (inactive) | > 100 µM (inactive) | > 100 µM (inactive) | > 100 µM (inactive) | > 100 µM (inactive) | > 100 µM (inactive) | > 100 µM (inactive) | > 100 µM (inactive) | > 100 µM (inactive) | > 100 µM (inactive) | > 100 µM (inactive) | > 100 µM (inactive) | > 100 µM (inactive) | > 100 µM (inactive) |
| Cc1ccc(S(=O)(=O)N2CCSCCSCCN(S(=O)(=O)c3ccc(C)cc3)CCN(S(=O)(=O)c3ccc(C)cc3)CC2)cc1 | > 100 µM (inactive) | > 100 µM (inactive) | > 100 µM (inactive) | > 100 µM (inactive) | > 100 µM | > 100 µM (inactive) | > 100 µM (inactive) | > 100 µM (inactive) | > 100 µM (inactive) | > 100 µM (inactive) | > 100 µM (inactive) | > 100 µM (inactive) | > 100 µM (inactive) | > 100 µM (inactive) | > 100 µM (inactive) | > 100 µM (inactive) | > 100 µM (inactive) | > 100 µM (inactive) | > 100 µM (inactive) | > 100 µM (inactive) |
